From patent US9119823B2 (priority 2008, dated 2015)
Read-outs that look alike come from different tables or passages of the source.

Columns and labels:
[1] = 50 mg/L nitrite in the drinking water for 7 days
Description: Enzymatic NO insufficiency is a hallmark of a number of diseases including cardiovascular disease. […] The mice were fed standard rodent chow or low NOx diet.

[2] = system: lesion formation on the abdominal aorta; conditions: 50 mg/L nitrite for 12 weeks, high fat diet
Description: Although the LDb mice spontaneously develop atherosclerosis on normal rodent chow, the addition of a high fat diet will accelerate the process from 8 months to 12 weeks.

[3] = low NOx diet
[4] = system: myocardial ischemia/reperfusion (I/R) injury
[5] = system: myocardial ischemia/reperfusion injury; conditions: eNOS-/- mice, low NOx diet, 50 mg/L nitrite, 30 minutes ischemia and 24 hour reperfusion
[6] = cited from earlier work; for half life of nitrite in whole blood: human whole blood
[7] = cited from earlier work
[8] = two year study, male or female rats; cited from earlier work
[9] = two year study, male or female mice; cited from earlier work
[10] = system: nitric oxide synthase (NOS); conditions: read-out: Michaelis constant (KM) for substrate; cited from earlier work
tissue homogenates = conditions: at 0.5% oxygen; cited from earlier work
[11] = in vivo; cited from earlier work
[12] = adults; cited from earlier work
[13] = cited from earlier work; remark: listed apart in the source
[14] = man, cited from earlier work
[15] = 50 mg/L nitrite in the drinking water for 1 week

Structure (SMILES): O=NO [nitrite, sodium nitrite]
- plasma and cardiac nitroso in eNOS-/- mice [1]: above C57 control levels
- plasma nitrite in eNOS-/- mice [1]: restores
- less lesion formation on the abdominal aorta than control group [2]: 20%
- plasma and heart nitroso levels [3, 15]: replenished and increased
- plasma and heart steady-state nitrite and nitrate concentrations [3, 15]: restored
- nitrosyl-heme products ([3]; nitrite supplementation in the drinking water): replenished
- survival 24 hours post-myocardial infarction ([4]; low NOx diet with nitrite-supplemented drinking water): 76.9%
- reversal of the increased myocardial infarct size ([4]; low NOx diet, 50 mg/L sodium nitrite ad libitum in the drinking water): 57%
- protection from myocardial ischemia/reperfusion injury [5]: protected
- half-life of nitrite in the circulation ([6]; circulation): 1.83 min
- half life of nitrite in whole blood [6]: 1.83 min
- half life of nitrite in whole blood ([6]; listed as NO2^−): about 110 seconds
- fatal dose ([7]; in humans): 22 to 23 mg/kg
- fatal dose of nitrite ([7]; in vivo): 22-23 mg/kg body weight
- carcinogenic activity [8]: no evidence of carcinogenic activity
- carcinogenic activity [9]: no evidence of carcinogenic activity

Structure (SMILES): N=C(N)NCCC[C@H](N)C(=O)O [L-arginine]
- Km [10]: 2.9 µM

Structure (SMILES): O=O [oxygen]
- inhibition of nitrite reduction (tissue homogenates): 80%

Structure (SMILES): O=[N+]([O-])[O-].[Na+] [nitrate, sodium nitrate]
- circulating half life of nitrate [11]: 300 to 480 min
- clearance of nitrate from blood to urine [12]: Approximately 20 ml/min
- ingested nitrate actively taken up by the salivary glands ([13]; excreted in the saliva): ≤ 25%
- salivary nitrate reduced to nitrite by bacteria in the mouth ([13]; in vivo): Approximately 20%
- poisoning, total oral daily dose ([14]; oral): > 4 g
- dose generally fatal [14]: 13 to 15 g
- dose that may be fatal [14]: 8 g
- poisoning, single dose [14]: more than 1 g
